Patent US9404087B2, “Insulin producing cells derived from pluripotent stem cells” (Kadimastem Ltd., priority 2010, dated 2016)

Experiments:
Type in all cases: cell-based
human insulin C-peptide = assay: Content of human insulin C-peptide by ELISA in cell fractions; details: EDTA added during re-aggregation (Table 2, Expt 3)
Experimental: On day 20, the medium used in step III of Example 2 was modified to adjust the glucose concentration to 5.5 mM (referred to herein as DM7). For isolation of EpCAM^+ cells by magnetic cell sorting (MACS technology, Miltenyi Biotec), a 10 cm-diameter plate was washed with PBS^−/− (no Ca^++, no Mg^++). Cells were then dissociated by treatment with Accutase (Stempro, 2.5 ml/10 cm plate), for 10 minutes at 37° C., and pipetting up and down. The cells were collected in DM7 and an aliquot counted in a NucleoCounter (New Brunswick). Cells were centrifuged at 1,500 rpm (350×g) for 5 minutes and re-suspended in MACS buffer (PBS^−/− with 0.5% BSA, 2 mM EDTA), using 0.3 ml for 50 million cells. Magnetic beads conjugated to anti-EpCAM antibodies (Miltenyi Biotec—CD326 pluripotent stem cells microbeads) were added (0.1 ml beads for 50 million cells). After 30 minutes at 4° C., the cells were washed once in 50 ml of MACS buffer, centrifuged, and finally re-suspended in 0.5 ml MACS buffer (for a maximum of 10^8 cells). […]
Aliquots of the Presort culture and of EpCAM-MACS-separated fractions (from step 7), as well as of re-aggregated clusters (step 8) were analyzed. The number of cells was counted, using the Nucleocounter. […] Human insulin mRNA was quantitated by RT-qPCR (Taq-Man, Applied Biosystems, Step One) using the TATA binding protein (TBP) gene as reference. […]

Human insulin mRNA = Human insulin mRNA by RT-qPCR with TBP as reference; details: EDTA added during the re-aggregation step
Experimental: Aliquots of the Presort culture and of EpCAM-MACS-separated fractions (from step 7), as well as of re-aggregated clusters (step 8) were analyzed. The number of cells was counted, using the Nucleocounter. After centrifugation at 350×g for 5 minutes, cell pellets were dissolved in M-PER (Mammalian protein extraction reagent, Pierce), typically using 0.1 ml M-PER for 2 million cells, and content of human insulin C-peptide was measured with an ELISA kit (Mercodia, Upsalh, Sweden, ultrasensitive c-peptide kit (minimal detection 5 pM) or Mercodia c-peptide ELISA (minimal detection 90 pM). Samples in M-PER were diluted 3 fold, or more in the kit buffer, and 20 μl of the ⅓ dilution were assayed. Results were expressed per mg total protein (as measured by Bradford assay) and per million cells (counted in a NucleoCounter). Other cell pellets were suspended in 0.7 ml buffer RLT (RNAeasy, Qiagen) per million cells, for RNA extraction. Human insulin mRNA was quantitated by RT-qPCR (Taq-Man, Applied Biosystems, Step One) using the TATA binding protein (TBP) gene as reference. In the same way, proteins and RNA were extracted from entire plates after scraping the cells with a rubber policeman. […]

human ES cells [1] = assay: Immunofluorescence for Pdx1 positive cells during differentiation
Experimental: On day 6, cells were washed with DMEM/F12, 2 mM glutamine, 1×PS, and medium changed to differentiation medium B1 (DMEM/F12, 2 mM glutamax (Invitrogen), 2 mg/ml BSA, 1% B27 supplement (In Vitrogen) 50 ng/ml human recombinant FGF10 (Preprotech), and 10 μM Forskolin (F-6886 from coleus forskohlii (SIGMA)). The cells were left two days in the same medium.
On day 8, the medium was changed to differentiation medium B2 i.e. medium B1 with addition of 2 μM fresh ATRA (All trans retinoic acid) for five days. Medium was changed every two days.
(§1) On day 13, medium was changed to DMEM/F12, Glutamine 2 mM, PS, 1×ITS supplement (Invitrogen), 2 mg/ml BSA, 5 μg/ml bovine fibronectin (Biological Industries Bet Ha'emek,), Nicotinamide 10 mM (SIGMA) and exendin-4, 5-50 ng/ml. Medium was changed every two days. Cells positive for C-peptide staining start to appear around day 19 of differentiation, but strong immunostaining for C-peptide appears at day 23 and positive islet like structures continue to form till day 50 and persist for at least 70 days. When the cells have differentiated more than 15-20 days, they can be further trypsinized and replated. On the second plating, islet-like structures appear 20-30 days after replating.
Performed as in Example 1. Goat polyclonal anti-human Pdx1/IPF1 (R&D) antibody at 1:100 for 2 hrs, (blocking at 5% BSA in PBS with Triton 0.1%) was used. […]

human ES cells [2] = assay: Immunostaining for C-peptide and glucagon in islet-like structures
Experimental: as §1
Cultures obtained as in Examples 1 and 2 were further cultured in ITS medium (as detailed in step III of Example 2) and were stained using polyclonal rabbit antibody to C-peptide (Acris) or monoclonal antibody (MAB 1975, Abcam) at dilution 1:200 overnight. To detect glucagon-produing cells, the cultures were also stained with goat polyclonal antibody against Glucagon (Santa Cruz N-17) at the concentration of 1:200 over night. The glucose transporter Glut2 was detected with mouse monoclonal Anti Glut-2 antibodies (R&D systems) used at the concentration of 1:200. […]

Compound: O=C(O)CN(CCN(CC(=O)O)CC(=O)O)CC(=O)O [EDTA, reference compound]
- effect on C-peptide content of re-aggregated cells (human insulin C-peptide): further increase
- effect on enrichment of insulin mRNA (Human insulin mRNA): increased

Compound: CC1=C(/C=C/C(C)=C/C=C/C(C)=C/C(=O)O)C(C)(C)CCC1 [retinoic acid, All trans retinoic acid]
- cultured cells expressing Pdx1 (human ES cells [1]; day 14, two days after end of retinoic acid treatment (2 μM ATRA with FGF10 and forskolin)): about 50%

Compound: exendin-4: maturation factor added to ITS medium at 5-50 ng/ml
- effect on the percentage of Pdx1 positive cells (human ES cells [1]; 5-50 ng/ml, with nicotinamide, cell counting (data not shown)): positive effect
- total amount of cells positive for C-peptide versus control without exendin-4 (human ES cells [2]; 5 ng/ml, after 60 days of differentiation (FIGS. 9A-B)): sufficient to increase
- number of C-peptide/glucagon positive areas, 50 ng/ml relative to 5 ng/ml (human ES cells [2]; day 60 (not shown)): 3 time more
